Biological target: T1, human PAH with the R408W mutation (Homo sapiens, UniProt P00439, R408W)
T1 construct: expressed in transfected cells
T1 sequence (P00439 1-452 R408W): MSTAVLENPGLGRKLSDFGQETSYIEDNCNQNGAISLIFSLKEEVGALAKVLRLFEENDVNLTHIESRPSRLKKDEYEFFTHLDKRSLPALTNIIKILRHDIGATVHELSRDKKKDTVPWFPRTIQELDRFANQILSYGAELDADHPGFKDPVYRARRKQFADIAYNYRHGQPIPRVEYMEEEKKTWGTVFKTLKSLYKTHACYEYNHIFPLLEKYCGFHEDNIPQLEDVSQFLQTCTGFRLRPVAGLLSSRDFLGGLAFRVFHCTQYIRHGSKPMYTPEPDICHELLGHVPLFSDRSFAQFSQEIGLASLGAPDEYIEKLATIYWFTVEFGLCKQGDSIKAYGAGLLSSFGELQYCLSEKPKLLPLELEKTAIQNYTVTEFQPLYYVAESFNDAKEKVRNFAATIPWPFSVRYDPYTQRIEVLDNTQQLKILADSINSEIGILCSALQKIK
Assay: Cell Based Phenylalanine Flux Assay
Settings: A375 cells expressing human R408W PAH; 24 hrs with compound; 13C-Tyrosine by LC-MS; average where tested multiple times; read-out: AC50

Row | SMILES | AC50 [µM]
1 | O=C(Cc1nncs1)N1CCc2[nH]cnc2C1c1nc2ccccc2s1 (stereo not drawn) [listing 1 of 2 here] | > 5
2 | Cc1nnc(CC(=O)N2CCc3[nH]cnc3C2c2nc3ccccc3s2)s1 (stereo not drawn) | > 5
3 | O=C(Cc1nccs1)N1CCc2[nH]cnc2C1c1nc2c(F)cccc2s1 (stereo not drawn) [listing 1 of 2 here] | > 5
4 | O=C(Cc1nncs1)N1CCc2[nH]cnc2C1c1nc2c(F)cccc2s1 (stereo not drawn) | > 5
5 | O=C(Cc1nc(C(F)(F)F)cs1)N1CCc2[nH]cnc2C1c1nc2c(F)cccc2s1 (stereo not drawn) [listing 1 of 2 here] | > 5
6 | Cc1nnc(CCC(=O)N2CCc3[nH]cnc3C2c2nc3c(F)cccc3s2)s1 (stereo not drawn) [listing 1 of 2 here] | > 5
7 | O=C(CCc1nccs1)N1CCc2nc[nH]c2C1c1nc2cc(Br)ccc2s1 (stereo not drawn) [listing 1 of 2 here] | > 5
8 | O=C(Cc1nccs1)N1CCc2[nH]cnc2C1c1nc2cc(F)ccc2s1 (stereo not drawn) [listing 1 of 2 here] | > 5
9 | O=C(Cc1nccs1)N1CCc2[nH]cnc2C1c1nc2ccc(Br)cc2s1 (stereo not drawn) [listing 1 of 2 here] | > 5
10 | O=C(Cc1nc(C(F)(F)F)cs1)N1CCc2[nH]cnc2C1c1nc2ccc(F)cc2s1 (stereo not drawn) [listing 1 of 2 here] | > 5
11 | O=C(Cc1nccs1)N1CCc2[nH]cnc2C1c1nc2ccc(F)cc2s1 (stereo not drawn) [listing 1 of 2 here] | > 5
12 | Cc1nnc(CCC(=O)N2CCc3[nH]cnc3C2c2nc3cccc(F)c3s2)s1 (stereo not drawn) [listing 1 of 2 here] | > 5
13 | c1ccc2oc(N3CCc4[nH]cnc4C3c3nc4ccccc4s3)nc2c1 (stereo not drawn) [listing 1 of 2 here] | > 5
14 | O=C(c1ccon1)N1CCc2[nH]cnc2C1c1nc2ccccc2s1 (stereo not drawn) [listing 1 of 2 here] | > 5
15 | O=C(c1nc2ccccc2s1)N1CCc2[nH]cnc2C1c1nc2c(F)cccc2s1 (stereo not drawn) [listing 1 of 2 here] | > 5
16 | Cc1ncc(C(=O)N2CCc3[nH]cnc3C2c2nc3ccccc3s2)o1 (stereo not drawn) [listing 1 of 2 here] | > 5
17 | Cc1ncc(C(=O)N2CCc3[nH]cnc3C2c2nc3ccccc3s2)s1 (stereo not drawn) [listing 1 of 2 here] | > 5
18 | Cc1ncsc1C(=O)N1CCc2[nH]cnc2C1c1nc2ccccc2s1 (stereo not drawn) [listing 1 of 2 here] | > 5
19 | O=C(c1ncc(Cl)s1)N1CCc2[nH]cnc2C1c1nc2ccc(F)cc2s1 (stereo not drawn) [listing 1 of 2 here] | > 5
20 | Cc1nnc(N2CCc3[nH]cnc3C2c2nc3ccccc3s2)o1 (stereo not drawn) | > 5
21 | O=C(c1cnn2cc(Cc3ccccc3)ccc12)N1CCc2[nH]cnc2C1c1nc2ccccc2s1 (stereo not drawn) [listing 1 of 2 here] | > 5
22 | O=C(c1cnn2cc(Br)ccc12)N1CCc2[nH]cnc2C1c1nc2ccc(F)cc2s1 (stereo not drawn) [listing 1 of 2 here] | > 5

Row | SMILES | AC50 [µM]
23 | COc1ccc2c(C(=O)N3CCc4[nH]cnc4C3c3nc4ccccc4s3)cnn2c1 (stereo not drawn) [listing 1 of 2 here] | > 5
24 | O=C(c1cc2ccccn2c1)N1CCc2[nH]cnc2C1c1nc2ccccc2s1 (stereo not drawn) | > 5
25 | O=C(c1cc2ccccn2n1)N1CCc2nc[nH]c2C1c1nc2ccccc2s1 (stereo not drawn) [listing 1 of 2 here] | > 5
26 | O=C(C1CC1)N1CCc2[nH]cnc2C1c1nc2ccc(F)cc2s1 (stereo not drawn) [listing 1 of 2 here] | > 5
27 | O=C(C1CC1)N1CCc2[nH]cnc2C1c1nc2cc(F)ccc2s1 (stereo not drawn) [listing 1 of 2 here] | > 5
28 | O=C(C1CC1)N1CCc2[nH]cnc2C1c1nc2c(F)cccc2s1 (stereo not drawn) [listing 1 of 2 here] | > 5
29 | O=C(CC1CC1)N1CCc2[nH]cnc2C1c1nc2c(F)cccc2s1 (stereo not drawn) [listing 1 of 2 here] | > 5
30 | O=C(c1cnn2cccc(F)c12)N1CCc2[nH]cnc2C1c1nc2c(F)cccc2s1 (stereo not drawn) [listing 1 of 2 here] | > 5
31 | O=C(c1cnn2cccc(F)c12)N1CCc2[nH]cnc2C1c1nc2cc(F)ccc2s1 (stereo not drawn) | > 5
32 | O=C(c1cnn2ccccc12)N1CCc2[nH]cnc2C1c1nc2ccc(Br)cc2s1 (stereo not drawn) [listing 1 of 2 here] | > 5
33 | O=C(C1CC1)N1CCc2[nH]cnc2C1c1nc2ccc(Br)cc2s1 (stereo not drawn) [listing 1 of 2 here] | > 5
34 | O=C(c1nccs1)N1CCc2[nH]cnc2C1c1nc2ccc(Cl)cc2s1 (stereo not drawn) | > 5
35 | O=C(c1cnn2ccccc12)N1CCc2[nH]cnc2C1c1nc2ccc(Cl)cc2s1 (stereo not drawn) | > 5
36 | O=C(c1n[nH]c2ccccc12)N1CCc2[nH]cnc2C1c1nc2ccc(F)cc2s1 (stereo not drawn) [listing 1 of 2 here] | > 5
37 | O=C(c1cnco1)N1CCc2[nH]cnc2C1c1nc2ccc(F)cc2s1 (stereo not drawn) [listing 1 of 2 here] | > 5
38 | O=C(c1cncs1)N1CCc2[nH]cnc2C1c1nc2ccc(F)cc2s1 (stereo not drawn) [listing 1 of 2 here] | > 5
39 | O=C(c1nncs1)N1CCc2[nH]cnc2C1c1nc2ccc(F)cc2s1 (stereo not drawn) [listing 1 of 2 here] | > 5
40 | O=C(c1cnn2cccc(F)c12)N1CCc2[nH]cnc2C1c1nc2ccc(F)cc2s1 (stereo not drawn) [listing 1 of 2 here] | > 5
41 | O=C(Cc1nncs1)N1CCc2[nH]cnc2C1c1nc2ccccc2s1 (stereo not drawn) [listing 2 of 2 here] | 1 to 5
42 | O=C(CCc1nccs1)N1CCc2[nH]cnc2C1c1nc2c(Br)cccc2s1 (stereo not drawn) | 1 to 5
43 | O=C(CCc1nccs1)N1CCc2nc[nH]c2C1c1nc2c(Cl)cccc2s1 (stereo not drawn) | 1 to 5
44 | O=C(Cc1nc(C(F)(F)F)cs1)N1CCc2[nH]cnc2C1c1nc2c(F)cccc2s1 (stereo not drawn) [listing 2 of 2 here] | 1 to 5

Row | SMILES | AC50 [µM]
45 | O=C(Cc1nccs1)N1CCc2[nH]cnc2C1c1nc2c(F)cccc2s1 (stereo not drawn) [listing 2 of 2 here] | 1 to 5
46 | Cc1nnc(CCC(=O)N2CCc3[nH]cnc3C2c2nc3c(F)cccc3s2)s1 (stereo not drawn) [listing 2 of 2 here] | 1 to 5
47 | Cc1nnc(CC(=O)N2CCc3[nH]cnc3C2c2nc3c(F)cccc3s2)s1 (stereo not drawn) | 1 to 5
48 | O=C(CCc1nccs1)N1CCc2nc[nH]c2C1c1nc2cc(Br)ccc2s1 (stereo not drawn) [listing 2 of 2 here] | 1 to 5
49 | O=C(CCc1nccs1)N1CCc2nc[nH]c2C1c1nc2cc(Cl)ccc2s1 (stereo not drawn) | 1 to 5
50 | O=C(Cc1nccs1)N1CCc2[nH]cnc2C1c1nc2cc(F)ccc2s1 (stereo not drawn) [listing 2 of 2 here] | 1 to 5
51 | O=C(Cc1nccs1)N1CCc2[nH]cnc2C1c1nc2ccc(Br)cc2s1 (stereo not drawn) [listing 2 of 2 here] | 1 to 5
52 | O=C(Cc1nc(C(F)(F)F)cs1)N1CCc2[nH]cnc2C1c1nc2ccc(F)cc2s1 (stereo not drawn) [listing 2 of 2 here] | 1 to 5
53 | O=C(Cc1nccs1)N1CCc2[nH]cnc2C1c1nc2ccc(F)cc2s1 (stereo not drawn) [listing 2 of 2 here] | 1 to 5
54 | Cc1nnc(CC(=O)N2CCc3[nH]cnc3C2c2nc3ccc(F)cc3s2)s1 (stereo not drawn) | > 5
55 | CC(C)(C)CCC(=O)N1CCc2[nH]cnc2C1c1nc2ccc(F)cc2s1 (stereo not drawn) | 1 to 5
56 | O=C(Cc1nncs1)N1CCc2[nH]cnc2C1c1nc2ccc(F)cc2s1 (stereo not drawn) | > 5
57 | Cc1nnc(CCC(=O)N2CCc3[nH]cnc3C2c2nc3cccc(F)c3s2)s1 (stereo not drawn) [listing 2 of 2 here] | 1 to 5
58 | c1ccc2oc(N3CCc4[nH]cnc4C3c3nc4ccccc4s3)nc2c1 (stereo not drawn) [listing 2 of 2 here] | 1 to 5
59 | O=C(c1ccon1)N1CCc2[nH]cnc2C1c1nc2ccccc2s1 (stereo not drawn) [listing 2 of 2 here] | 1 to 5
60 | O=C(c1nc2ccccc2s1)N1CCc2[nH]cnc2C1c1nc2c(F)cccc2s1 (stereo not drawn) [listing 2 of 2 here] | 1 to 5
61 | O=C(c1nc2ccccc2s1)N1CCc2[nH]cnc2C1c1nc2ccc(F)cc2s1 (stereo not drawn) | 1 to 5
62 | O=C(c1nc2ccccc2s1)N1CCc2nc[nH]c2C1c1nc2ccc(Br)cc2s1 (stereo not drawn) | > 5
63 | O=C(c1cnc(Br)s1)N1CCc2[nH]cnc2C1c1nc2ccccc2s1 (stereo not drawn) | > 5
64 | Cc1ncc(C(=O)N2CCc3[nH]cnc3C2c2nc3ccccc3s2)o1 (stereo not drawn) [listing 2 of 2 here] | 1 to 5
65 | Cc1ncc(C(=O)N2CCc3[nH]cnc3C2c2nc3ccccc3s2)s1 (stereo not drawn) [listing 2 of 2 here] | 1 to 5
66 | Cc1ncsc1C(=O)N1CCc2[nH]cnc2C1c1nc2ccccc2s1 (stereo not drawn) [listing 2 of 2 here] | 1 to 5

Row | SMILES | AC50 [µM]
67 | O=C(c1ncc(Cl)s1)N1CCc2[nH]cnc2C1c1nc2ccc(F)cc2s1 (stereo not drawn) [listing 2 of 2 here] | 1 to 5
68 | O=C(c1cnn2cc(Cc3ccccc3)ccc12)N1CCc2[nH]cnc2C1c1nc2ccccc2s1 (stereo not drawn) [listing 2 of 2 here] | 1 to 5
69 | O=C(c1cnn2cc(Br)ccc12)N1CCc2[nH]cnc2C1c1nc2ccc(F)cc2s1 (stereo not drawn) [listing 2 of 2 here] | 1 to 5
70 | COc1ccc2c(C(=O)N3CCc4[nH]cnc4C3c3nc4ccccc4s3)cnn2c1 (stereo not drawn) [listing 2 of 2 here] | 1 to 5
71 | O=C(c1cc2ccccn2n1)N1CCc2nc[nH]c2C1c1nc2ccccc2s1 (stereo not drawn) [listing 2 of 2 here] | 1 to 5
72 | O=C(C1CC1)N1CCc2[nH]cnc2C1c1nc2c(F)cccc2s1 (stereo not drawn) [listing 2 of 2 here] | 1 to 5
73 | O=C(C1CC1)N1CCc2[nH]cnc2C1c1nc2ccc(F)cc2s1 (stereo not drawn) [listing 2 of 2 here] | 1 to 5
74 | O=C(C1CC1)N1CCc2[nH]cnc2C1c1nc2cc(F)ccc2s1 (stereo not drawn) [listing 2 of 2 here] | 1 to 5
75 | O=C(CC1CC1)N1CCc2[nH]cnc2C1c1nc2c(F)cccc2s1 (stereo not drawn) [listing 2 of 2 here] | 1 to 5
76 | O=C(c1n[nH]c2ccccc12)N1CCc2[nH]cnc2C1c1nc2c(F)cccc2s1 (stereo not drawn) | 1 to 5
77 | O=C(c1cnn2cccc(F)c12)N1CCc2[nH]cnc2C1c1nc2c(F)cccc2s1 (stereo not drawn) [listing 2 of 2 here] | 1 to 5
78 | Fc1ccc2sc(CN3CCc4[nH]cnc4C3c3nc4cc(F)ccc4s3)nc2c1 (stereo not drawn) | > 5
79 | O=C(c1nccs1)N1CCc2[nH]cnc2C1c1nc2ccc(Br)cc2s1 (stereo not drawn) | 1 to 5
80 | O=C(c1cnn2ccccc12)N1CCc2[nH]cnc2C1c1nc2ccc(Br)cc2s1 (stereo not drawn) [listing 2 of 2 here] | 1 to 5
81 | O=C(C1CC1)N1CCc2[nH]cnc2C1c1nc2ccc(Br)cc2s1 (stereo not drawn) [listing 2 of 2 here] | 1 to 5
82 | O=C(c1n[nH]c2ccccc12)N1CCc2[nH]cnc2C1c1nc2ccc(F)cc2s1 (stereo not drawn) [listing 2 of 2 here] | 1 to 5
83 | O=C(c1cnco1)N1CCc2[nH]cnc2C1c1nc2ccc(F)cc2s1 (stereo not drawn) [listing 2 of 2 here] | 1 to 5
84 | O=C(c1cncs1)N1CCc2[nH]cnc2C1c1nc2ccc(F)cc2s1 (stereo not drawn) [listing 2 of 2 here] | 1 to 5
85 | O=C(c1nncs1)N1CCc2[nH]cnc2C1c1nc2ccc(F)cc2s1 (stereo not drawn) [listing 2 of 2 here] | 1 to 5
86 | O=C(c1cnn2cccc(F)c12)N1CCc2[nH]cnc2C1c1nc2ccc(F)cc2s1 (stereo not drawn) [listing 2 of 2 here] | 1 to 5
87 | O=C(c1ncn2ccccc12)N1CCc2[nH]cnc2C1c1nc2ccc(F)cc2s1 (stereo not drawn) | 1 to 5

Source: patent publication US20250171438A1 (Agios Pharmaceuticals, Inc., priority 2022, published 2025)
